Publication PMC12124388, “High-affinity PQQ import is widespread in Gram-negative bacteria” (Science Advances, 2025)

Experiments:
PqqU (formerly YncD) [1] = molecular target: T1, PqqU (formerly YncD) (Escherichia coli, UniProt P76115); assay: isothermal titration calorimetry; type: binding; details: 50 mM tris-HCl pH 7.4, 150 mM NaCl; LMNG-purified, excess detergent removed; PQQ as disodium salt, oxidized; curve not accurately fitted, Kd only stated as low to subnanomolar range
T1 construct: 10xHis-tagged PqqU from pET-20b-pqqU, expressed in E. coli BL21 (DE3) C41, purified from membranes (DDM or LMNG), 76 kDa monomer; 700 residues in full, 39-699 modelled
T1 sequence (P76115 24-700): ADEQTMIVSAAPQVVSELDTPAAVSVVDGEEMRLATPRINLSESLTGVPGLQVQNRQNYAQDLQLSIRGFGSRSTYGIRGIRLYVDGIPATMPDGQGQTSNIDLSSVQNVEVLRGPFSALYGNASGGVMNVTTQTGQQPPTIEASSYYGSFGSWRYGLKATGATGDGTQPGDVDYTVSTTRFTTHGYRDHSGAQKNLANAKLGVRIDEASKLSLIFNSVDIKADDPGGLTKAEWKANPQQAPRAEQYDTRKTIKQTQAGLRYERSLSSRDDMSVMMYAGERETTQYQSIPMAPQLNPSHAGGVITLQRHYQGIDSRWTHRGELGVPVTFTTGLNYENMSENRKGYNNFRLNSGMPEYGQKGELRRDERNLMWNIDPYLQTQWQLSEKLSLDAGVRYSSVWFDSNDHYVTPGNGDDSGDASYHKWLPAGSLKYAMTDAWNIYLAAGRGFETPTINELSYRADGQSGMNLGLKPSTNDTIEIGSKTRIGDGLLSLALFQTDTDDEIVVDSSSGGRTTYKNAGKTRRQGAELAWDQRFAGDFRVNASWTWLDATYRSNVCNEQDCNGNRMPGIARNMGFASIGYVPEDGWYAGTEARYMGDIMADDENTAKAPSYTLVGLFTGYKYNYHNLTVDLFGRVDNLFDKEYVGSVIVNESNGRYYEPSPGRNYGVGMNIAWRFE

PqqU (formerly YncD) [2] = molecular target: T1, PqqU (formerly YncD); assay: cryo-EM structure of complex, […] Å; type: binding; details: 43 μM PqqU with 910 μM PQQ; LMNG micelle; single PQQ in internal extracellular-side cavity, loops 7 and 8 closed; no metal bound to PQQ

`O=C(O)c1cc(C(=O)O)c2c(n1)C(=O)C(=O)c1cc(C(=O)O)[nH]c1-2` [PQQ] was tested, and the Kd (PqqU (formerly YncD) [1]) was “likely with a Kd in the low to subnanomolar range” and the “cryo-EM structure of complex, 1.99 Å” value (PqqU (formerly YncD) [2]) was “we used cryo-EM to resolve the structure of the PqqU-PQQ complex”.
